According to paper PMC9820646, “Identification and Pharmacological Characterization of Two Serotonin Type 7 Receptor Isoforms from Mythimna separata” (International Journal of Molecular Sciences, 2022):
pIC50: −log10 of the molar value. Counter-ions that a name gives are not always drawn. Like-named read-outs stand apart in the source and are kept apart here.

Assays:
[1] = biological target: T1, Msep5-HT7L receptor (Mythimna separata, UniProt A0AAD7YHG5); assay: cAMP assay, antagonist block of 5-HT-induced response in HEK293 cells expressing Msep5-HT7L; assay type: cell-based; conditions: against 5 μM 5-HT
Protocol: (§1) HEK-293 cells were cultured in D-MEM (Gibco BRL, Gaithersburg, MD, USA) supplemented with 10% FBS (Gibco BRL, Gaithersburg, MD, USA) at 37 °C and 5% CO2. Four microgram recombinant plasmids with 10 μL of lipofectamine 2000 (Invitrogen, Carlsbad, CA, USA) were introduced into exponentially growing HEK 293 cells. The 0.8 mg/mL antibiotic G418 (Sigma, St. Louis, MO, USA) was added to the medium to select for cells that were stably expressed the Msep5-HT7 receptors. After fourteen days of G418 selection, three G418-resistant colonies were trypsinized in cloning cylinders and transferred to 12-well plastic plates for expansion.
(§2) Intracellular cAMP concentrations were measured as previously described. Briefly, when cells were cultured for 2 days to the concentration of 1 × 10^6 cells/mL, culture media were removed and the cells were washed two times with cold PBS (pH 7.4), then the cells were preincubated in 450 μL of Dulbecco’s phosphate-buffered solution (DPBS) containing 100 μM phosphodiesterase inhibitor 3-isobutyl-1-methylxanthine (IBMX) for 20 min at room temperature. After the preincubation, 50 μL of DPBS, containing various concentrations of reagents, was added into the stable transfected cells for incubation for 30 min at 37 °C. The cells were washed three times with cold PBS (pH 7.4) and then lysed in 250 μL of cold cell lysis buffer by re-freezing. The cell debris was removed by centrifugation at 600× g for 10 min at 4 °C. The amount of intracellular cAMP extracted from harvested supernatant was determined using an ELISA reagent (R&D Systems, Minneapolis, MN, USA). Each measurement was performed in duplicate, and three independent assays were carried out for each reagent and concentration tested.

[2] = tested on: Msep5-HT7L receptor; assay: as above; assay type: cell-based; conditions: for decrease of 5-HT induced response: 40 μM antagonist (8-fold) with 5 μM 5-HT, range stated for all antagonists and both isoforms; for antagonist potency or efficacy, Msep5-HT7L compared with Msep5-HT7S: inhibition of 5-HT-induced cAMP production, based on 95% fiducial limits
Protocol: as §1, §2

[3] = biological target: T2, Msep5-HT7S receptor (Mythimna separata, UniProt A0AAD7YHG5, DEL320-414); assay: cAMP assay, antagonist block of 5-HT-induced response in HEK293 cells expressing Msep5-HT7S; assay type: cell-based; conditions: for inhibition at 40 µM: HEK293, read-out: decrease of 5-HT induced response; for pIC50: against 5 μM 5-HT
Protocol: as §1, §2

[4] = tested on: 5-HT7 receptor; conditions: 5-HT7 receptor from A. mellifera; ref [17],[27]; cited from earlier work
[5] = biological target: 5-HT1 receptor; parameters: method as in PMID 23741451, PMID 16945110; conditions: 5-HT1 receptor from T. castaneum; ref [17],[27]; cited from earlier work
[6] = biological target: T1, Msep5-HT7L receptor; assay: cAMP assay, agonist activation of Msep5-HT7L in stably transfected HEK293 cells; assay type: cell-based; conditions: 10 μM, HEK293 cells expressing Msep5-HT7L
Protocol: as §1, §2

[7] = biological target: T2, Msep5-HT7S receptor; assay: cell-based; assay type: cell-based
Protocol: as §1, §2

[8] = tested on: 5-HT7 receptor; assay: literature pharmacology of C. vicina 5-HT7 receptor; conditions: 5-HT7 receptor from C. vicina vs the two Msep5-HT7 isoforms
[9] = tested on: 5-HT7 receptor; conditions: 5-HT7 receptor from T. castaneum vs the two Msep5-HT7 isoforms
[10] = biological target: 5-HT7 receptor; conditions: 5-HT7 receptor from T. castaneum; ref [36]; cited from earlier work
[11] = biological target: 5-HT7 receptor; conditions: 5-HT7 receptor from C. vicina; ref [28],[36],[46]; cited from earlier work
[12] = tested on: larvae of Mythimna separata; parameters: method as in PMID 20000410; conditions: ref [22]; cited from earlier work
[13] = logIC50 (Mean ± SEM), 5-HT7L, given as negative log value
[14] = logIC50 (Mean ± SEM), 5-HT7S, given as negative log value
[15] = 10 μM, HEK293 cells expressing Msep5-HT7S

T1 sequence (A0AAD7YHG5 entry or part of it): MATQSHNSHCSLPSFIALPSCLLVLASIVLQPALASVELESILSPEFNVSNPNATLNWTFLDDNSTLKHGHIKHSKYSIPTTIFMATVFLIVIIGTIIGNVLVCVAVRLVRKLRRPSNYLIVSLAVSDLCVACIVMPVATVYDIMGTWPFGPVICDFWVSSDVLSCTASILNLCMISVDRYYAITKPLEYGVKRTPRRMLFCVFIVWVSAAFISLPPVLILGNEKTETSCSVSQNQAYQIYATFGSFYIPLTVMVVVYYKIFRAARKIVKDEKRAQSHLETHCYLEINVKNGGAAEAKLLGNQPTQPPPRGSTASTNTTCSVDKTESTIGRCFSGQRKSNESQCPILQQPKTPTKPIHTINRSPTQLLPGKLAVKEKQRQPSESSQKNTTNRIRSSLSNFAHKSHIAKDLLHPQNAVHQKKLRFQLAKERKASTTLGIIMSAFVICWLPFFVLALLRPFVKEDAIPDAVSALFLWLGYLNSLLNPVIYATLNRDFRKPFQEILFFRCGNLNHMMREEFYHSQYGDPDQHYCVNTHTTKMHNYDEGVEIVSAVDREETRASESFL
T2 sequence (A0AAD7YHG5 entry or part of it DEL320-414): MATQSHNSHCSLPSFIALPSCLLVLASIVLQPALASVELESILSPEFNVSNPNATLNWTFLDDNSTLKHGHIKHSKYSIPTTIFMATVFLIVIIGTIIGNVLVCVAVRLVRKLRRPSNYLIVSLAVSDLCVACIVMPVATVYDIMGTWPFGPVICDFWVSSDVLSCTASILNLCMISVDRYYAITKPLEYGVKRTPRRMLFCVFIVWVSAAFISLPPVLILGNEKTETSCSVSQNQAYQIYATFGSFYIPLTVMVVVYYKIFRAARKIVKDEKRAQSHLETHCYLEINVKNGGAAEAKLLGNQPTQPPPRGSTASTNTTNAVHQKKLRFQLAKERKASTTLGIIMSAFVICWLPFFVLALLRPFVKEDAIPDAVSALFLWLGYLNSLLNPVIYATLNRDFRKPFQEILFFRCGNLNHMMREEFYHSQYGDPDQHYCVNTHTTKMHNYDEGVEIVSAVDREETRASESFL

Compound | pIC50 ([1]; IC50, 5-HT7L, HEK-293 cells) | pIC50 [1, 13] | decrease of 5-HT induced response [2] | antagonist potency or efficacy, Msep5-HT7L compared with Msep5-HT7S [2] | inhibition at 40 µM [3] | pIC50 ([3]; IC50, 5-HT7S, HEK-293 cells) | pIC50 [3, 14] | effect on intracellular cAMP levels [6] | also measured
CC1CCN(CC[C@H]2CCCN2S(=O)(=O)c2cccc(O)c2)CC1 [SB-269970, (R)-3-(2-(2-(4-methylpiperidin-1-yl)ethyl)pyrrolidine-1-sulfonyl) phenol] | 4.15 | 4.15 | 33–60% | no significant differences | 33 to 60% | 4.17 | 4.17 |  | antagonistic effect [4]: poor antagonistic effect; pIC50 [5]: 3.69
NCC(O)c1ccc(O)cc1 (racemic) [octopamine, (±)-octopamine hydrochloride] |  |  |  |  |  |  |  | only 5-HT significantly increased cAMP levels | effect on intracellular cAMP levels [7, 15]: only 5-HT significantly increased cAMP levels
NCCc1ccc(O)cc1 [tyramine, tyramine hydrochloride] |  |  |  |  |  |  |  | only 5-HT significantly increased cAMP levels | effect on intracellular cAMP levels [7, 15]: only 5-HT significantly increased cAMP levels
CSc1ccc2c(c1)C(N1CCN(C)CC1)Cc1ccccc1S2 (stereo not shown) [Methiothepin, methiothepin mesylate] | 4.06 | 4.06 | 33–60% | no significant differences | 33 to 60% | 4.20 | 4.20 |  | 
O=C(c1ccc(F)cc1)C1CCN(CCn2c(=O)[nH]c3ccccc3c2=O)CC1 [Ketanserin] | 4.33 | 4.33 | 33–60% | higher antagonistic activity | 33 to 60% | 4.07 | 4.07 |  | fold higher inhibitory potency than against Msep5-HT7L and Msep5-HT7S [8]: 20- to 50 fold; fold higher inhibitory potency than against Msep5-HT7L and Msep5-HT7S [9]: 20- to 50 fold; pIC50 [10]: 5.71; pIC50 [11]: 5.82
NCCc1ccc(O)c(O)c1 [dopamine, dopamine hydrochloride] |  |  |  |  |  |  |  | only 5-HT significantly increased cAMP levels | effect on intracellular cAMP levels [7]: only 5-HT significantly increased cAMP levels
Nc1ccc(CCN2CCN(c3cccc(C(F)(F)F)c3)CC2)cc1 [PAPP, 1-[(4-aminophenyl)ethyl]-4-[3-(trifluoromethyl)phenyl] piperazine] |  |  |  |  |  |  |  |  | effect on larvae [12]: inhibit the growth or kill the larvae
